Results as given in article PMC12959348 (Angewandte Chemie (International ed. in English), 2025).

How the values were obtained:
[1] = test system: KRAS (DNA, G4) AGGGCGGTGTGGGAATAGGGAA; assay: fluorescence polarization (intrinsic pomalidomide fluorescence); conditions: 100 mM KCl; 10 mM Li-cacodylate, pH 7.4; ligand 0.2 µM; fit assumes two sites per G4; per site
[2] = test system: dsDNA (DNA, hairpin) TATAGCTATATTTTTTTATAGCTATA; assay: as above; conditions: 100 mM KCl; 10 mM Li-cacodylate, pH 7.4; ligand 0.2 µM; per site
[3] = test system: TERRA (RNA, G4) UAAGGGUAAGGGUAAGGGUAAGGG; assay: as above; conditions: 100 mM KCl; 10 mM Li-cacodylate, pH 7.4; ligand 0.2 µM; fit assumes two sites per G4; per site
[4] = test system: VEGFR (DNA, G4) GGGTACCCGGGTGAGGTGCGGGGT; assay: as above; conditions: 100 mM KCl; 10 mM Li-cacodylate, pH 7.4; ligand 0.2 µM; fit assumes two sites per G4; per site
[5] = test system: telo24 (DNA, G4) TTAGGGTTAGGGTTAGGGTTAGGG; assay: as above; conditions: 100 mM KCl; 10 mM Li-cacodylate, pH 7.4; ligand 0.2 µM; fit assumes two sites per G4; per site
[6] = test system: 19wt (DNA, G4) GGGGGAGGGGTACAGGGGTACAGGGG; assay: as above; conditions: 100 mM KCl; 10 mM Li-cacodylate, pH 7.4; ligand 0.2 µM; fit assumes two sites per G4; per site
[7] = test system: NRAS (RNA, G4) UGUGGGAGGGGCGGGUCUGGGUGC; assay: as above; conditions: 100 mM KCl; 10 mM Li-cacodylate, pH 7.4; ligand 0.2 µM; fit assumes two sites per G4; per site
[8] = test system: c-kit1 (DNA, G4) AGGGAGGGCGCTGGGAGGAGGG; assay: as above; conditions: 100 mM KCl; 10 mM Li-cacodylate, pH 7.4; ligand 0.2 µM; fit assumes two sites per G4; per site
[9] = test system: PARP1 (DNA, G4) TGGGGTCCGAGGCGGGGCTTGGG; assay: as above; conditions: 100 mM KCl; 10 mM Li-cacodylate, pH 7.4; ligand 0.2 µM; fit assumes two sites per G4; per site
[10] = test system: ssDNA (DNA, single strand) CCCTAACCCTAACCCTAACCCTAA; assay: as above; conditions: 100 mM KCl; 10 mM Li-cacodylate, pH 7.4; ligand 0.2 µM; per site
[11] = test system: bcl2 (DNA, G4) GGGCGCGGGAGGAATTGGGCGGG; assay: as above; conditions: 100 mM KCl; 10 mM Li-cacodylate, pH 7.4; ligand 0.2 µM; fit assumes two sites per G4; per site
[12] = test system: VEGF (DNA, G4) CGGGGCGGGCCTTGGGCGGGGT; assay: as above; conditions: 100 mM KCl; 10 mM Li-cacodylate, pH 7.4; ligand 0.2 µM; fit assumes two sites per G4; per site
[13] = test system: bcl2 (DNA, G4) GGGCGCGGGAGGAATTGGGCGGG; assay: fluorescence polarization (pomalidomide fluorescence); conditions: 100 mM K+ (KCl), 10 mM Li-cacodylate, pH 7.4, ligand 0.2 µM, per binding site (two sites per G4)
[14] = test system: TERRA (RNA, G4) UAAGGGUAAGGGUAAGGGUAAGGG; assay: as above; conditions: 100 mM K+ (KCl), 10 mM Li-cacodylate, pH 7.4, ligand 0.2 µM, per binding site (two sites per G4)
cereblon (CRBN) = target: T1, cereblon (CRBN) (Homo sapiens, UniProt Q96SW2); assay: TR-FRET displacement of thalidomide-red from Eu3+-cryptate-labeled CRBN; format: binding
T1 construct: Eu3+-cryptate-labeled CRBN
T1 sequence (Q96SW2 whole entry): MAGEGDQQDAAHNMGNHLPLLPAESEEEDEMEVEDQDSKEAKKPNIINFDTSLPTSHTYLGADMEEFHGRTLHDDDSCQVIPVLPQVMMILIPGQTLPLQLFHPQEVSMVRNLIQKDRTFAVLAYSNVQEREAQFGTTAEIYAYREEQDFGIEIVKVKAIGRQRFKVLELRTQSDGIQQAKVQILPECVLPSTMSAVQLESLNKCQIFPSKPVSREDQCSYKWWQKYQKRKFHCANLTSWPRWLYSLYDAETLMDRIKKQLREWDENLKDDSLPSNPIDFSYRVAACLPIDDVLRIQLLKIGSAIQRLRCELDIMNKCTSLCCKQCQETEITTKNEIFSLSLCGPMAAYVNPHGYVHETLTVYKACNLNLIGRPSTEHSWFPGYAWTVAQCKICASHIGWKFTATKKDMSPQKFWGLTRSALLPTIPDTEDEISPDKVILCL
Description: TR-FRET displacement of thalidomide-red from Eu3+-cryptate-labeled CRBN on cereblon (CRBN) | displacement of thalidomide-red and binding of 1a and 2a to CRBN.

Kd [1] [nM] | Kd [2] [nM] | Kd [3] [nM] | Kd [4] [nM] | Kd [5] [nM] | Kd [6] [nM] | Kd [7] [nM] | Kd [8] [nM] | Kd [9] [nM] | Kd [10] [nM] | Kd [11] [nM] | Kd [12] [nM] | Kd [13] [nM] | Kd [14] [nM] | IC50 (cereblon (CRBN)) [nM] | SMILES
19 ± 14 | > 1200 | 26 ± 22 | 46 ± 18 | 33 ± 17 | 289 ± 184 | 10 ± 5 | 38 ± 41 | 39 ± 16 | > 1200 | 104 ± 53 | 4 ± 3 | – | – | – | Cc1oc2nc1-c1nc(c(CCCNC(=O)CNc3cccc4c3C(=O)N(C3CCC(=O)N(C)C3=O)C4=O)o1)-c1nc(co1)C(=O)N[C@@H](CCCCN)c1nc(co1)-c1nc(co1)-c1nc(co1)C(=O)N[C@H]2CCCCN (some centres unmarked)
– | > 1200 | – | – | 155 ± 29 | – | 96 ± 28 | – | – | > 1200 | – | – | 278 ± 258 | 110 ± 115 | – | Cc1oc2nc1-c1nc(c(CCCNC(=O)CCOCCOCCOCCOCCNc3cccc4c3C(=O)N(C3CCC(=O)N(C)C3=O)C4=O)o1)-c1nc(co1)C(=O)N[C@@H](CCCCN)c1nc(co1)-c1nc(co1)-c1nc(co1)C(=O)N[C@H]2CCCCN (some centres unmarked)
45 ± 35 | > 1200 | 72 ± 39 | 27 ± 5 | 108 ± 75 | 103 ± 27 | 65 ± 2 | 39 ± 23 | 42 ± 40 | > 1200 | 30 ± 13 | 42 ± 38 | – | – | 61 | Cc1oc2nc1-c1nc(c(CCCNC(=O)CNc3cccc4c3C(=O)N(C3CCC(=O)NC3=O)C4=O)o1)-c1nc(co1)C(=O)N[C@@H](CCCCN)c1nc(co1)-c1nc(co1)-c1nc(co1)C(=O)N[C@H]2CCCCN (some centres unmarked) [1a]
103 ± 45 | > 1200 | 5 ± 4 | 802 ± 325 | 356 ± 210 | 3402 ± 436 | 68 ± 56 | 178 ± 22 | 817 ± 447 | > 1200 | 266 ± 178 | 46 ± 23 | – | – | 90 | Cc1oc2nc1-c1nc(c(CCCNC(=O)CCOCCOCCOCCOCCNc3cccc4c3C(=O)N(C3CCC(=O)NC3=O)C4=O)o1)-c1nc(co1)C(=O)N[C@@H](CCCCN)c1nc(co1)-c1nc(co1)-c1nc(co1)C(=O)N[C@H]2CCCCN (some centres unmarked) [2a]
